Results published in patent US20140212981A1, “METHODS AND SYSTEMS FOR DETERMINING THE AMOUNT OF THIOPURINE METABOLITES IN A SAMPLE” (Laboratory Corporation of America Holdings, priority 2012, published 2014).

How the values were obtained:
[1] = cited from earlier work; for Therapeutic Range: metabolite level in red blood cells of subjects on thiopurine treatment, exemplary therapeutic levels
[2] = Acid-promoted conversion (hydrolysis) as a function of time; assay type: physicochemical; details: FIG. 2C
Text: The method comprises converting the one or more 6-thioguanine nucleotide compounds to 6-thioguanine or a 6-thioguanine hydrolysis product. The converting can be carried out in any manner known to those of skill in the art. In some embodiments, the converting comprises contacting the one or more 6-thioguanine nucleotide compounds with a sulfur-containing reducing agent to yield one or more reduced 6-thioguanine nucleotide compounds. Any suitable sulfur-containing reducing agent can be used. In some embodiments, the sulfur-containing reducing agent is dithioerythritol. In some such embodiments, the method comprises contacting the one or more reduced 6-thioguanine nucleotide compounds with an acidic hydrolyzing agent. Any suitable acidic hydrolyzing agent can be used. In some embodiments, the acidic hydrolyzing agent is perchloric acid, nitric acid, sulfuric acid, or a combination thereof. In some such embodiments, the acidic hydrolyzing agent is perchloric acid.
In some embodiments the hydrolysis of 6-methylmercaptopurine nucleotide compounds proceeds according to Scheme 2 below. […] The 6-methylmercaptopurine is readily hydrolyzed in the presence of acid to form a 6-methylmercaptopurine hydrolysis product comprising 4-amino-5-(methylthio) carbonyl imidazole. […]

In the case of “6-methylmercaptopurine nucleotides [6-MMPNs]”, the “Therapeutic Range” value [1] is listed as <5700 pmol/8 × 10^8RBC and the “Alert Values” ([1]; metabolite level in red blood cells, levels in this range require modulation of therapy) is listed as >5700 pmol/8 × 10^8RBC.
In the case of 6-thioguanine nucleotides [6-TGNs], the “Therapeutic Range” value [1] is listed as 235 - 450 pmol/8 × 10^8RBC.
For `CSc1ncnc2nc[nH]c12` [6-MMP, 6-methylmercaptopurine], the “Time for acid-promoted conversion to hydrolysis product” value ([2]; 6-MMP to 6-MMP*, perchloric acid hydrolysis) was “less than 140 minutes”.
In the case of `[2H]C([2H])([2H])Sc1ncnc2[nH]cnc12` [D3-6-MMP], the “Rate of acid-promoted conversion relative to unlabeled 6-MMP” value ([2]; D3-6-MMP to D3-6-MMP*) is reported as “same rate as unlabeled 6-MMP”.
